{"source": "patent US6530985B1", "about": "“Water-based magenta ink composition and method of ink-jet recording” (Nippon Kayaku Kabushiki Kaisha, priority 1998, dated 2003)", "test": "Solubility of the dye in water", "assay_type": "physicochemical", "text": "Further, the dye component used in the Example, which has a solubility in water of 100 g/L, is excellent for ink-jet recording and can produce a high concentration of ink composition.", "data": [{"smiles": "CCC(C)(C)c1ccc(Oc2cc(Nc3ccc(S(=O)(=O)O)cc3)c3c4c(c(C(=O)c5ccccc5)c(=O)[nH]c24)-c2ccccc2C3=O)c(S(=O)(=O)O)c1", "values": [{"measurement": "solubility in pure water (ion exchanged water)", "setting": "25° C., listed as the dye component used in the Example", "value": 100, "unit": "mg/mL"}, {"measurement": "solubility", "setting": "pure water (ion exchanged water), 25 °C, water", "value": "~100", "unit": "mg/mL"}]}]}
